For assay [1], the target named is T1, GSK-3β (Homo sapiens, UniProt P49841).
T1 construct: made in house; host or cells: HEK-293 (transient transfection, pCMV4 vector; DE-52 partial purification)
The assay is described as follows: In vitro kinase assay with GSK-3β in the presence of peptide inhibitor. Type of assay: biochemical. The method, then: (0.5 μCi/assay) for 15 minutes.
The ability of each peptide to inhibit GSK-3β was then determined by in vitro kinase assays as described hereinabove.

The subject of assay [2] is β-catenin. As to the kind of experiment: β-catenin levels in COS-7 cells, Western blot. The conditions noted are these: various concentrations, 5 hour, FIG. 6B. The class given is cell-based. As to the method: In further studies, COS-7 cells were treated with L806-mts at various concentrations for 5 hour.
(A western blot detects proteins with antibodies after separation by electrophoresis.)

Assay [3] has as its system heat shock factor-1 (HSF-1). As to the kind of experiment: Phosphorylation of HSF-1 in COS-7 cells, Western blot. The class given is cell-based. The conditions noted are these: FIG. 6C. As to the method:
L806-mts-treated COS-7 cells were also tested for phosphorylation of the GSK-3 substrate heat shock factor-1 (HSF-1).

Assay [4] deals with β-catenin. As to the kind of experiment: Hippocampus β-catenin levels in mice after nasal administration. Type of assay: in vivo, C57BL/6J mice. The conditions noted are these: 60 μg peptide/mouse/day, 3 days, vs non-treated. As to the method:
C57BL/6J mice (12 week old; obtained from Animal Facilities at Tel Aviv University) were treated with L803-mts or L806-mts via a nasal administration (60 μg peptide/per mouse/per day) for 3 days. Non-treated animals served as control. Brains were removed and hippocampus was homogenized in ice-cold ‘buffer G’(20 mM Tris pH 7.5, 10 mM β-glycerophosphate, 10% glycerol, 1 mM EGTA, 1 mM EDTA, 50 mM NaF, 5 mM sodium pyrophosphate, 0.5 mM orthovanadate, 1 mM benzamidine, 5 μg/ml leupeptin, 25 μg/ml aprotinin, 5 μg/ml pepstatin, and 0.5% Triton X100). Equal amounts of proteins (50 μg) were subjected to gel electrophoresis, transferred to nitrocellulose membranes, and immunoblotted with anti-β-catenin antibody. Hippocampus β-catenin levels were determined by western blot analysis as described.

The source of these data is US9243034B2, “Glycogen synthase kinase-3 inhibitors” (Ramot at Tel-Aviv University Ltd., priority 2011, dated 2016).

By IC50 is commonly meant the concentration that inhibits the measured activity by half.

Each structure is given as a SMILES string. Where a SMILES comes first, the peptide text is derived from it. [ ]: non-standard residue; d: D form. The star is where a group is joined. Myristoyl = CCCCCCCCCCCCCC(=O)*; pS = N[C@@H](COP(=O)(O)O)C(=O)O

T1 sequence (P49841 1-433 isoform P49841-2): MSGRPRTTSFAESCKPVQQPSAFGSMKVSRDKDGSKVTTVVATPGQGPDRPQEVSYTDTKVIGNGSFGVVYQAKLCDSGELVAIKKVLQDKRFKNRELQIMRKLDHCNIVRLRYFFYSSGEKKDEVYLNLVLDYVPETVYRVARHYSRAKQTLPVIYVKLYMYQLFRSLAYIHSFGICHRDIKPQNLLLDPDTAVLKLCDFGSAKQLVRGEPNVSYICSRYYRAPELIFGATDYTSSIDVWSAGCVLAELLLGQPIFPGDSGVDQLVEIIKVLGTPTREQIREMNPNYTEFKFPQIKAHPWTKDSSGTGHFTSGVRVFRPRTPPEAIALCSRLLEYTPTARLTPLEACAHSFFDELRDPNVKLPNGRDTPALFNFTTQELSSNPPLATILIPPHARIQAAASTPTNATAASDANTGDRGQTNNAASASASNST

For the compound `CCCCCCCCCCCCCC(=O)NCC(=O)N[C@@H](CCCCN)C(=O)N[C@@H](CCC(=O)O)C(=O)N[C@@H](C)C(=O)N1CCC[C@H]1C(=O)N1CCC[C@H]1C(=O)N[C@@H](C)C(=O)N1CCC[C@H]1C(=O)N1CCC[C@H]1C(=O)N1CCC[C@H]1C(=O)N[C@@H](COP(=O)(O)O)C(=O)N1CCC[C@H]1C(=O)O` [L806-mts] (Myristoyl-GKEAPPAPPP[pS]P-OH; C-terminus assumed), in assay [1], the half-inhibitory concentration (IC50) was about 1000 nM. Further, in assay [2], the “Levels of β-catenin” value is “Elevation of β-catenin”. Moreover, the “Phosphorylation of HSF-1” value in assay [3] is on record as “Reduced phosphorylation”. The “Hippocampus β-catenin levels” value in assay [4] is recorded as “elevation in β-catenin levels”.
